According to patent US6730700B2, “3,4,5,-trisubstituted aryl nitrone compounds and pharmaceutical compositions containing the same” (Renovis, Inc., priority 1998, dated 2004):

Tests used:
[1] = tested on: adjuvant-induced footpad edema in rats; assay: Adjuvant assay (adjuvant-induced footpad edema); type: in vivo, rat; conditions: Male Lewis rats, 3 mg/kg po, dosing day 14 to day 21 post-adjuvant
Description: See, for example, […], “Rat Adjuvant Arthritis A Model of Chronic Inflammation,” Pharmocoloigal Methods in the Control of Inflammation, 363-380 (1989) and references cited therein In this assay, Male Lewis rats weighing between 180-220 g were lightly anesthetized with an ip injection of 30 mg/kg of sodium pentobarbital (50 mg/mL). Desiccated Mycobacterium butyrium (Difco, 20 mg/mL) suspended in mineral oil was injected (50 μL) at both sides of the base of the tail under the skin A line was tattooed on both rear paws at 5 mm above the angle of the ankle The paw volumes, under the line, were measured by volume displacement using a plethysmometer (Ugo Basile) at the day of adjuvant injection (day 0) and on day 14 On day 14, animals with paw volumes equal to the mean of paw volumes ±SD were randomized into treatment groups. Rats which fell outside ±1 SD were not used in the experiment.

[2] = target: T1, COX-1 derived from ram seminal vesicles (Ovis aries, UniProt P05979); assay: Inhibition of COX-1 (arachidonic acid incubation, PGE2 formation); conditions: 300 μM; PGE2 formation by spectrophotometric quantitation of malondialdehyde
T1 sequence (P05979 25-600): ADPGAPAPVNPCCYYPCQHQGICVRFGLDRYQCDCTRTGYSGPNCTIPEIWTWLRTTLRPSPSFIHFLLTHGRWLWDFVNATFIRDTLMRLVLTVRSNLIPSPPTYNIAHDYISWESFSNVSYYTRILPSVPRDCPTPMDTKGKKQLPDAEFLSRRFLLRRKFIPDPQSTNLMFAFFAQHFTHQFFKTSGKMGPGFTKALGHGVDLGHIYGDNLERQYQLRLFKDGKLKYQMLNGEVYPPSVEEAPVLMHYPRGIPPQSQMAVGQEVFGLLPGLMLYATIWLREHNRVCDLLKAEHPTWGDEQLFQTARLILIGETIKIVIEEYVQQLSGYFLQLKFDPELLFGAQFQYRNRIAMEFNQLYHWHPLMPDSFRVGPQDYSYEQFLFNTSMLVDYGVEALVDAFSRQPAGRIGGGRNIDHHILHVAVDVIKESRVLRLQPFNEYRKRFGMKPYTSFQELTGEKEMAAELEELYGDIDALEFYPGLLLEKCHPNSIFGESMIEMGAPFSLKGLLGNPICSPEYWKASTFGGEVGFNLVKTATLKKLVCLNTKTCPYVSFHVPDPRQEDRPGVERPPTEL
Description: (§1) The inhibition of COX-1 was measured by incubating arachidonic acid with COX-1 derived from ram seminal vesicles. The inhibition of COX-2 was measured by incubation of arachidonic acid with COX-2 derived from sheep placenta. […] In each assay, the formation of prostaglandin E2 (PGE2) was measured by spectrophotometric quantitation of malondialdehyde.

[3] = target: T2, COX-2 derived from sheep placenta (Ovis aries, UniProt P79208); assay: Inhibition of COX-2 (arachidonic acid incubation, PGE2 formation); conditions: 300 μM; PGE2 formation by spectrophotometric quantitation of malondialdehyde
T2 sequence (P79208 17-603): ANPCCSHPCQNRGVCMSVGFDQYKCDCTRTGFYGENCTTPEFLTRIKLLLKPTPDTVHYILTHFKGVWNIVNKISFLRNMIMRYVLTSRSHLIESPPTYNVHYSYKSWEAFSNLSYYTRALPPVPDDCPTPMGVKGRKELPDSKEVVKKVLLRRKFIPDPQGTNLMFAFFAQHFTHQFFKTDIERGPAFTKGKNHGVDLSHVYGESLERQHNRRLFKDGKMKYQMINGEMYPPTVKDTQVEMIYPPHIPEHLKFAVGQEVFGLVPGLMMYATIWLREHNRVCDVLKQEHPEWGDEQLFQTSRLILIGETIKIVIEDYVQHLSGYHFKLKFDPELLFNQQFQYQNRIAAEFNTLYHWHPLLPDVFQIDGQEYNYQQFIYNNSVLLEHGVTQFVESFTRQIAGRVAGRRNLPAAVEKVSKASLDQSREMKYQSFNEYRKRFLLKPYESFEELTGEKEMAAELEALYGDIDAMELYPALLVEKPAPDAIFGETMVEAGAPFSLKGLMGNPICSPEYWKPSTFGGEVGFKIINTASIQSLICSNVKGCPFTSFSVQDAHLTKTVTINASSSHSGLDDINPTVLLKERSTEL
Description: as §1

Structure (SMILES)	paw volume as compared to vehicle controls [1]	inhibition of COX-1 [2]	inhibition of COX-2 [3]
COc1ccc2c(c1)c(CC(=O)O)c(C)n2C(=O)c1ccc(Cl)cc1 [indomethacin]	significantly reduced	–	–
CC(=O)Oc1c(C(C)(C)C)cc(/C=[N+](\[O-])C(C)(C)C)cc1C(C)(C)C [Example 1, α-(4-Acetoxy-3,5-di-tert-butylphenyl)-N-tert-butylnitrone]	–	did not significantly affect	did not significantly affect
